Where a SMILES comes first, the peptide text is derived from it. [ ]: non-standard residue; d: D form. The star is where a group is joined. NHCH2CH2OH = OCCN*; For = O=C*
What was measured:
[1] = H+/Na+ transport assay of bead-derived peptides (one-point); type: biochemical; set-up: key: relative activity; mean of two control wells = 1.00; details: bead-derived peptide solution, EYPC/EYPG LUVs;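 note: relative to parent gramicidin A activity set to 1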
Outline: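 Pyranine (1.0 mM)-loaded LUVs containing egg yolk phosphatidylglycerol were prepared by film hydration, sonication and extrusion, then mixed with diluted bead-derived peptide in 96-well format and vortexed 30 min at room temperature. Fluorescence was normalized between untreated LUVs (0%) and Triton X-100 lysis (100%).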

[2] = test system: P388 mouse leukemia cells; details: 92 h
Outline: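 P388 cells at 1 × 10^4 cells/mL (final) were exposed to library peptides (stocks diluted 250-fold in RPMI1640/10% FBS) for 92 h at 37 °C, 5% CO2. Viable cells were counted by WST-1/1-methoxy PMS (4 h), absorbance 415 nm, and expressed as cell viability (%).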

[3] = test system: Streptococcus pyogenes SSI-9; assay: Antibacterial activity assay of bead-derived peptides (three concentrations); type: cell-based; set-up: key: +++: inhibition by the 640-fold diluted peptide solution; ++: inhibition by the 160-fold diluted solution; +: inhibition by the 40-fold diluted solution; -: no inhibition; details: S. pyogenes, bead-derived peptide solution, three concentrations
Outline: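 Library peptide stock applied undiluted, 4-fold and 16-fold diluted in DMSO to S. pyogenes SSI-9 (2 × 10^5 CFU) in cation-adjusted Mueller Hinton broth with 5% laked horse blood. After 18 h at 37 °C, growth judged by visible cell precipitation.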

With `CC(C)C[C@@H](NC(=O)[C@H](C)NC(=O)[C@H](NC(=O)[C@H](C)NC(=O)CNC(=O)[C@@H](NC=O)C(C)C)C(C)C)C(=O)N[C@H](C(=O)N[C@@H](C(=O)N[C@@H](Cc1c[nH]c2ccccc12)C(=O)N[C@@H](C(=O)N[C@@H](Cc1c[nH]c2ccccc12)C(=O)N[C@H](CC(C)C)C(=O)N[C@@H](Cc1c[nH]c2ccccc12)C(=O)N[C@H](CC(C)C)C(=O)N[C@@H](Cc1c[nH]c2ccccc12)C(=O)NCCO)C(C)C)C(C)C)C(C)C` [compound 5463] (For-VGA[dV]A[dL]V[dV]W[dV]W[dL]W[dL]W-NHCH2CH2OH) the “H+/Na+ transport activity normalized against the value of 1 (1.00)” value (“H+/Na+ transport activity normalized” below) [1] was 1.11, the cell viability/% [2] was 100.0% and the antibacterial activity [3] was “++”.

In the case of `CNC(=O)C[C@@H](NC(=O)[C@@H](NC(=O)[C@H](NC(=O)[C@H](C)NC(=O)[C@H](NC(=O)[C@H](C)NC(=O)CNC(=O)[C@@H](NC=O)C(C)C)C(C)C)C(C)C)C(C)C)C(=O)N[C@@H](Cc1c[nH]c2ccccc12)C(=O)N[C@@H](C(=O)N[C@@H](Cc1c[nH]c2ccccc12)C(=O)N[C@H](CC(C)C)C(=O)N[C@@H](Cc1c[nH]c2ccccc12)C(=O)N[C@H](CC(C)C)C(=O)N[C@@H](Cc1c[nH]c2ccccc12)C(=O)NCCO)C(C)C` [compound 2898] (For-VGA[dV]A[dV]V[dD](NHMe)W[dV]W[dL]W[dL]W-NHCH2CH2OH), the “H+/Na+ transport activity normalized” value [1] is reported as 1.13, the cell viability/% [2] is reported as 100.0% and the antibacterial activity [3] is reported as “-”.

For `CC(C)C[C@@H](NC(=O)[C@H](Cc1c[nH]c2ccccc12)NC(=O)[C@H](NC(=O)[C@H](Cc1c[nH]c2ccccc12)NC(=O)[C@@H](CC(C)C)NC(=O)[C@H](Cc1c[nH]c2ccccc12)NC(=O)[C@H](NC(=O)[C@@H](NC(=O)[C@H](NC(=O)[C@H](C)NC(=O)[C@H](NC(=O)[C@H](C)NC(=O)CNC(=O)[C@@H](NC=O)C(C)C)[C@H](C)O)C(C)C)C(C)C)C(C)C)C(C)C)C(=O)N[C@@H](Cc1c[nH]c2ccccc12)C(=O)NCCO` [compound 11199] (For-VGA[dT]A[dV]V[dV]W[dL]W[dV]W[dL]W-NHCH2CH2OH), the “H+/Na+ transport activity normalized” value [1] was 1.00, the cell viability/% [2] was 65.2% and the antibacterial activity [3] was “-”.

For `CNC(=O)C[C@@H](NC(=O)[C@@H](NC(=O)[C@@H](CC(C)C)NC(=O)[C@H](C)NC(=O)[C@H](NC(=O)[C@H](C)NC(=O)CNC(=O)[C@@H](NC=O)C(C)C)C(C)C)C(C)C)C(=O)N[C@@H](Cc1c[nH]c2ccccc12)C(=O)N[C@H](CC(C)C)C(=O)N[C@@H](Cc1c[nH]c2ccccc12)C(=O)N[C@@H](C(=O)N[C@@H](Cc1c[nH]c2ccccc12)C(=O)N[C@@H](C(=O)N[C@@H](Cc1c[nH]c2ccccc12)C(=O)NCCO)C(C)C)C(C)C` [compound 11349] (For-VGA[dV]A[dL]V[dD](NHMe)W[dL]W[dV]W[dV]W-NHCH2CH2OH), the “H+/Na+ transport activity normalized” value [1] was 1.00, the cell viability/% [2] was 34.3% and the antibacterial activity [3] was “-”.

For `CNC(=O)C[C@@H](NC(=O)[C@H](C)NC(=O)[C@@H](CC(C)C)NC(=O)[C@H](C)NC(=O)CNC(=O)[C@@H](NC=O)C(C)C)C(=O)N[C@H](C(=O)N[C@@H](C(=O)N[C@@H](Cc1c[nH]c2ccccc12)C(=O)N[C@H](CC(C)C)C(=O)N[C@@H](Cc1c[nH]c2ccccc12)C(=O)N[C@@H](C(=O)N[C@@H](Cc1c[nH]c2ccccc12)C(=O)N[C@H](CC(C)C)C(=O)N[C@@H](Cc1c[nH]c2ccccc12)C(=O)NCCO)C(C)C)C(C)C)C(C)C` [compound 8535] (For-VGA[dL]A[dD](NHMe)V[dV]W[dL]W[dV]W[dL]W-NHCH2CH2OH), the “H+/Na+ transport activity normalized” value [1] was 1.28, the cell viability/% [2] was 71.4% and the antibacterial activity [3] was “-”.

In the case of `CC(C)C[C@@H](NC(=O)[C@H](Cc1c[nH]c2ccccc12)NC(=O)[C@@H](CC(C)C)NC(=O)[C@H](Cc1c[nH]c2ccccc12)NC(=O)[C@H](NC(=O)[C@H](Cc1c[nH]c2ccccc12)NC(=O)[C@@H](CC(C)C)NC(=O)[C@@H](NC(=O)[C@H](NC(=O)[C@H](C)NC(=O)[C@H](NC(=O)[C@H](C)NC(=O)CNC(=O)[C@@H](NC=O)C(C)C)C(C)C)C(C)C)C(C)C)C(C)C)C(=O)N[C@@H](Cc1c[nH]c2ccccc12)C(=O)NCCO` [compound 11146] (For-VGA[dV]A[dV]V[dL]W[dV]W[dL]W[dL]W-NHCH2CH2OH), the “H+/Na+ transport activity normalized” value [1] is reported as 1.08, the cell viability/% [2] is reported as 100.0% and the antibacterial activity [3] is reported as “+”.

For `CC(C)C[C@@H](NC(=O)[C@H](Cc1c[nH]c2ccccc12)NC(=O)[C@H](NC(=O)[C@H](Cc1c[nH]c2ccccc12)NC(=O)[C@@H](CC(C)C)NC(=O)[C@H](Cc1c[nH]c2ccccc12)NC(=O)[C@@H](CC(C)C)NC(=O)[C@@H](NC(=O)[C@H](NC(=O)[C@H](C)NC(=O)[C@H](NC(=O)[C@H](C)NC(=O)CNC(=O)[C@@H](NC=O)C(C)C)C(C)C)C(C)C)C(C)C)[C@H](C)O)C(=O)N[C@@H](Cc1c[nH]c2ccccc12)C(=O)NCCO` [compound 1251] (For-VGA[dV]A[dV]V[dL]W[dL]W[dT]W[dL]W-NHCH2CH2OH), the “H+/Na+ transport activity normalized” value [1] was 1.00, the cell viability/% [2] was 52.9% and the antibacterial activity [3] was “+”.

For `CC(C)C[C@@H](NC(=O)[C@H](Cc1c[nH]c2ccccc12)NC(=O)[C@H](NC(=O)[C@H](Cc1c[nH]c2ccccc12)NC(=O)[C@@H](CC(C)C)NC(=O)[C@@H](NC(=O)[C@H](NC(=O)[C@H](C)NC(=O)[C@H](NC(=O)[C@H](C)NC(=O)CNC(=O)[C@@H](NC=O)C(C)C)[C@H](C)O)C(C)C)C(C)C)C(C)C)C(=O)N[C@@H](Cc1c[nH]c2ccccc12)C(=O)N[C@@H](C(=O)N[C@@H](Cc1c[nH]c2ccccc12)C(=O)NCCO)C(C)C` [compound 182] (For-VGA[dT]A[dV]V[dL]W[dV]W[dL]W[dV]W-NHCH2CH2OH), the “H+/Na+ transport activity normalized” value [1] was 1.16, the cell viability/% [2] was 100.0% and the antibacterial activity [3] was “-”.

With `CNC(=O)C[C@@H](NC(=O)[C@@H](NC(=O)[C@@H](CC(C)C)NC(=O)[C@H](C)NC(=O)[C@@H](CC(C)C)NC(=O)[C@H](C)NC(=O)CNC(=O)[C@@H](NC=O)C(C)C)C(C)C)C(=O)N[C@@H](Cc1c[nH]c2ccccc12)C(=O)N[C@H](CC(C)C)C(=O)N[C@@H](Cc1c[nH]c2ccccc12)C(=O)N[C@H](CC(C)C)C(=O)N[C@@H](Cc1c[nH]c2ccccc12)C(=O)N[C@@H](C(=O)N[C@@H](Cc1c[nH]c2ccccc12)C(=O)NCCO)C(C)C` [compound 6851] (For-VGA[dL]A[dL]V[dD](NHMe)W[dL]W[dL]W[dV]W-NHCH2CH2OH) the “H+/Na+ transport activity normalized” value [1] was 1.16, the cell viability/% [2] was 100.0% and the antibacterial activity [3] was “-”.

In the case of `CNC(=O)C[C@@H](NC(=O)[C@H](Cc1c[nH]c2ccccc12)NC(=O)[C@H](NC(=O)[C@H](Cc1c[nH]c2ccccc12)NC(=O)[C@@H](CC(C)C)NC(=O)[C@H](Cc1c[nH]c2ccccc12)NC(=O)[C@@H](CC(C)C)NC(=O)[C@@H](NC(=O)[C@@H](CC(C)C)NC(=O)[C@H](C)NC(=O)[C@@H](CC(C)C)NC(=O)[C@H](C)NC(=O)CNC(=O)[C@@H](NC=O)C(C)C)C(C)C)C(C)C)C(=O)N[C@@H](Cc1c[nH]c2ccccc12)C(=O)NCCO` [compound 3911] (For-VGA[dL]A[dL]V[dL]W[dL]W[dV]W[dD](NHMe)W-NHCH2CH2OH), the “H+/Na+ transport activity normalized” value [1] is reported as 1.00, the cell viability/% [2] is reported as 100.0% and the antibacterial activity [3] is reported as “-”.

In the case of `CC(C)C[C@@H](NC(=O)[C@H](Cc1c[nH]c2ccccc12)NC(=O)[C@H](NC(=O)[C@H](Cc1c[nH]c2ccccc12)NC(=O)[C@@H](CC(C)C)NC(=O)[C@@H](NC(=O)[C@H](NC(=O)[C@H](C)NC(=O)[C@H](NC(=O)[C@H](C)NC(=O)CNC(=O)[C@@H](NC=O)C(C)C)C(C)C)C(C)C)C(C)C)C(C)C)C(=O)N[C@@H](Cc1c[nH]c2ccccc12)C(=O)N[C@@H](C(=O)N[C@@H](Cc1c[nH]c2ccccc12)C(=O)NCCO)C(C)C` [compound 2120] (For-VGA[dV]A[dV]V[dL]W[dV]W[dL]W[dV]W-NHCH2CH2OH), the “H+/Na+ transport activity normalized” value [1] is reported as 1.24, the cell viability/% [2] is reported as 17.0% and the antibacterial activity [3] is reported as “++”.

With `CNC(=O)C[C@@H](NC(=O)[C@H](Cc1c[nH]c2ccccc12)NC(=O)[C@H](NC(=O)[C@H](Cc1c[nH]c2ccccc12)NC(=O)[C@H](NC(=O)[C@H](Cc1c[nH]c2ccccc12)NC(=O)[C@@H](CC(C)C)NC(=O)[C@@H](NC(=O)[C@H](NC(=O)[C@H](C)NC(=O)[C@@H](CC(C)C)NC(=O)[C@H](C)NC(=O)CNC(=O)[C@@H](NC=O)C(C)C)C(C)C)C(C)C)C(C)C)C(C)C)C(=O)N[C@@H](Cc1c[nH]c2ccccc12)C(=O)NCCO` [compound 6808] (For-VGA[dL]A[dV]V[dL]W[dV]W[dV]W[dD](NHMe)W-NHCH2CH2OH) the “H+/Na+ transport activity normalized” value [1] was 1.02, the cell viability/% [2] was 100.0% and the antibacterial activity [3] was “-”.

With `CC(C)C[C@@H](NC(=O)[C@H](C)NC(=O)CNC(=O)[C@@H](NC=O)C(C)C)C(=O)N[C@@H](C)C(=O)N[C@@H](C(=O)N[C@H](C(=O)N[C@H](CC(C)C)C(=O)N[C@@H](Cc1c[nH]c2ccccc12)C(=O)N[C@@H](C(=O)N[C@@H](Cc1c[nH]c2ccccc12)C(=O)N[C@@H](C(=O)N[C@@H](Cc1c[nH]c2ccccc12)C(=O)N[C@@H](C(=O)N[C@@H](Cc1c[nH]c2ccccc12)C(=O)NCCO)[C@H](C)O)C(C)C)C(C)C)C(C)C)C(C)C` [compound 12984] (For-VGA[dL]A[dV]V[dL]W[dV]W[dV]W[dT]W-NHCH2CH2OH) the “H+/Na+ transport activity normalized” value [1] was 1.08, the cell viability/% [2] was 81.1% and the antibacterial activity [3] was “-”.

— publication PMC7531004, “Discovery of gramicidin A analogues with altered activities by multidimensional screening of a one-bead-one-compound library” (Nature Communications, 2020)
